In ChEMBL document CHEMBL1129839, “The preparation and sar of 4-(anilino), 4-(phenoxy), and 4-(thiophenoxy)-quinazolines: Inhibitors of p56lck and EGF-R tyrosine kinase activity” (Bioorg Med Chem Lett, 1997):

What was measured:
[1] = target: T1, Epidermal growth factor receptor (Homo sapiens, UniProt P00533); assay: Inhibition of Epidermal growth factor receptor autophosphorylation.
[2] = target: T2, Tyrosine-protein kinase Lck (Homo sapiens, UniProt P06239); assay: Inhibition of p56 Lck tyrosine kinase in Jurkat cells where p56lck autophosphorylation is inhibited.; format: cell-based
T2 sequence (P06239 whole entry): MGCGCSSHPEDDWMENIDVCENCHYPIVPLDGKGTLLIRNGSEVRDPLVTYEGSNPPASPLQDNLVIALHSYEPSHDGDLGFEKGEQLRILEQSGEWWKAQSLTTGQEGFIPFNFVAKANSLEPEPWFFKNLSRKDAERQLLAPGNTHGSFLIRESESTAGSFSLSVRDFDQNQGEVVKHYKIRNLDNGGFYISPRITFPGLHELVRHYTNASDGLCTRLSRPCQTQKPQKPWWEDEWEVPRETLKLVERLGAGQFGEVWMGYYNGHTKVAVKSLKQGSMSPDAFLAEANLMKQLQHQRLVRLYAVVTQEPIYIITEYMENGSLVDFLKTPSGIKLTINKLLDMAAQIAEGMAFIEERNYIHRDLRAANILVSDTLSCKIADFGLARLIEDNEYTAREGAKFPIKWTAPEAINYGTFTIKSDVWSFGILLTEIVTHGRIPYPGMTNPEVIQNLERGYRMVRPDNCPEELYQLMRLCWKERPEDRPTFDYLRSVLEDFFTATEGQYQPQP

[3] = target: T2, Tyrosine-protein kinase Lck; assay: Inhibition of p56lck kinase autophosphorylation in Jurkat cells; format: cell-based
[4] = target: T1, Epidermal growth factor receptor
Description: Inhibition of Epidermal growth factor receptor autophosphorylation, 0.05-0.10

T1 sequence (P00533 whole entry): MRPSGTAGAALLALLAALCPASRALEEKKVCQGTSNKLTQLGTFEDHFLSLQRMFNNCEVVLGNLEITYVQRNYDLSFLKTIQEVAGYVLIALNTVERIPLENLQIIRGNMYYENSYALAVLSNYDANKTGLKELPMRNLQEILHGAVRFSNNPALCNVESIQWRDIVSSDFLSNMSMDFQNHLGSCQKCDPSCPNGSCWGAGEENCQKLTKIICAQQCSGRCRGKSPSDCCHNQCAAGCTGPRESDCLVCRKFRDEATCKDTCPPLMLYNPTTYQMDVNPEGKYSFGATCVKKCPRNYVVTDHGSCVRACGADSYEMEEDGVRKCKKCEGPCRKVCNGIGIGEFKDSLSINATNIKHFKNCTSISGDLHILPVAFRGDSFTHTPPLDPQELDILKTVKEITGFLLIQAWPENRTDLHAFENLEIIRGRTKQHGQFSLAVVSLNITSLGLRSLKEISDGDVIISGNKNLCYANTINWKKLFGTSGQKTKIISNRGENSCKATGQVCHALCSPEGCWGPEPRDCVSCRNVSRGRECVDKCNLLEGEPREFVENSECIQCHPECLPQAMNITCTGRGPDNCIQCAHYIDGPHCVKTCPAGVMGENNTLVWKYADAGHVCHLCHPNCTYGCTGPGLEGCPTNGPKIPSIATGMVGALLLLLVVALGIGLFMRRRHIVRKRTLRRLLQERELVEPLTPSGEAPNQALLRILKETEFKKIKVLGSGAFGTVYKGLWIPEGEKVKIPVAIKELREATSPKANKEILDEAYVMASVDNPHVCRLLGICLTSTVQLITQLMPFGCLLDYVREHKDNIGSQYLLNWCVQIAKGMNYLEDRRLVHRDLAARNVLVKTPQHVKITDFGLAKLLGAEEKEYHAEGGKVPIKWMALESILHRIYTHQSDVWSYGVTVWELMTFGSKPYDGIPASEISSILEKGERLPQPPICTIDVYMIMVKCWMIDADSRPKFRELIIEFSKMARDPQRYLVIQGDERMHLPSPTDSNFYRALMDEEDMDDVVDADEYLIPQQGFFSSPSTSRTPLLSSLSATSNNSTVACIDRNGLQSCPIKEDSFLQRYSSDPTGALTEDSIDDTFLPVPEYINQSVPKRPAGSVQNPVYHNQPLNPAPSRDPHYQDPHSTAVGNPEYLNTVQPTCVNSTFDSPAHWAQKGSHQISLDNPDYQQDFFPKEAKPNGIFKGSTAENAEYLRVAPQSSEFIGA

| Structure (SMILES) | IC50 [1] [µM] | IC50 [2] [µM] | further results |
| --- | --- | --- | --- |
| COc1ccc(Sc2ncnc3cc(OC)c(OC)cc23)cc1OC | > 50 | > 50 |  |
| COc1cc2ncnc(Oc3cccc(Cl)c3)c2cc1OC | 0.02 |  |  |
| COc1cc2ncnc(Sc3cccc(Cl)c3)c2cc1OC | 0.01 |  |  |
| COc1cc(Nc2[nH]cnc3ncnc2-3)cc(OC)c1OC |  | 50 |  |
| COc1cc(Nc2[nH]cnc3nncc2-3)cc(OC)c1OC |  | 10 |  |
| COc1cc2ncnc(Nc3cccc(Cl)c3)c2cc1OC |  |  | IC50 [3]: 5 µM |
| COc1cc2ncnc(Nc3cccc(F)c3)c2cc1OC |  | 10 |  |
| COc1cc2nc(Cl)nc(Nc3cc(OC)c(OC)c(OC)c3)c2cc1OC | > 20 | > 100 |  |
| COc1cc2ncnc(Nc3ccccc3)c2cc1OC |  |  | IC50 [3]: 10 µM |
| COc1ccc2ncnc(Nc3cc(OC)c(OC)c(OC)c3)c2c1 | 0.1 | 10 |  |
| COc1ccc(Nc2ncnc3cc(OC)c(OC)cc23)cc1 | 0.25 | 10 |  |
| COc1cc(Nc2ncnc3c(OC)c(OC)c(OC)cc23)cc(OC)c1OC | > 20 | > 100 |  |
| COc1cc(Nc2ncnc3cc(OC)c(OC)cc23)cc(OC)c1 | 3 |  | IC50 ([3]; jurkat): 10 µM |
| COc1cc2ncnc(N(C)c3ccccc3)c2cc1OC |  |  | IC50 [3]: > 100 µM |
| COc1ccc(Nc2ncnc3cc(OC)c(OC)cc23)cc1OC | 0.35 |  | IC50 ([2]; jurkat): 10 µM |
| COc1cc(Nc2ncnc3c(C)cc(C)cc23)cc(OC)c1OC | > 20 | > 100 |  |
| COc1cc2ncnc(NCc3ccccc3)c2cc1OC | 0.004 |  |  |
| COc1cc(Nc2ncnc3ccc(Cl)cc23)cc(OC)c1OC | > 1 | > 50 |  |
| COc1cc2ncnc(Nc3ccc(O)cc3)c2cc1OC | 0.1 | 3 |  |
| Clc1cccc(Nc2ncnc3ccccc23)c1 |  |  | IC50 [4]: 0.05 µM; IC50 [3]: 50 µM |
| COc1cc2ncnc(Nc3ccc4c(c3)CCC4)c2cc1OC |  | 50 |  |
| COc1cc2ncnc(Nc3ccc(N4CCOCC4)cc3)c2cc1OC | > 1 | > 100 |  |
| COc1c(C=O)c(O)cc2c1C(=O)c1ccccc1C2=O [DAMNACANTHAL] |  | 0.017 |  |
